Reference: article PMC8006202, “Influence of YES1 Kinase and Tyrosine Phosphorylation on the Activity of OCT1” (Frontiers in Pharmacology, 2021)
Where two headings read alike, the source gives them in different places.

Legend:
mouse OCT1 (mOCT1) = biological target: T1, mouse OCT1 (mOCT1) (Mus musculus, UniProt O08966); assay: Cellular uptake of [14C] TEA in HEK293 cells overexpressing mOCT1, with or without inhibitor; type: cell-based; conditions: models overexpressing mOCT1, Supplementary Figure S4C
T1 construct: expressed in transfected cells
T1 sequence (O08966 1-556): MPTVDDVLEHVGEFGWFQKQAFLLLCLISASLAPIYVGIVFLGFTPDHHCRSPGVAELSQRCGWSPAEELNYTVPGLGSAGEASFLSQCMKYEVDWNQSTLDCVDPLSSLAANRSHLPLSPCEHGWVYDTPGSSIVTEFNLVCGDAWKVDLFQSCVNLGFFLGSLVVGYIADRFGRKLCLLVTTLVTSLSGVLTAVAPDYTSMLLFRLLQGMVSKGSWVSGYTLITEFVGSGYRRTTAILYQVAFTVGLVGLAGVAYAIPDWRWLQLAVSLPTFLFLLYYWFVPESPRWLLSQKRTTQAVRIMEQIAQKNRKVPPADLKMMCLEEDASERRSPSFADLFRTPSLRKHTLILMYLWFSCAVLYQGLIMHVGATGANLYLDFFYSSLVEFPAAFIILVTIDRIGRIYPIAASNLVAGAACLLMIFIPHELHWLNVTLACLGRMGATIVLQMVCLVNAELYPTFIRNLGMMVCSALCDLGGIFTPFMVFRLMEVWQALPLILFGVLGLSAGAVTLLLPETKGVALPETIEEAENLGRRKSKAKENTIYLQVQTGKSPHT
Procedure: (§1) Human embryonic kidney (HEK293) cells were obtained from the American Type Culture Collection (ATCC, Manassas, VA). HEK293 cells stably transfected with mouse OCT1 (mOCT1) or human OCT1 (hOCT1) were cultured in Dulbecco’s Modified Eagle Media (DMEM) media supplemented with 10% fetal bovine serum (FBS) and grown at 37°C in a humidified incubator containing 5% CO2. Radiolabeled [^14C] TEA and [^14C] metformin were obtained from American Radiochemicals (St. Louis, MO). Cellular uptake assays were performed 48 h following transient transfection by Lipofectamine 3000 Transfection Reagent (Thermo Fisher Scientific, Waltham, MA). ON-TARGETplus Human YES1 siRNA was obtained from Dharmacon (Lafayette, CO). RNA extraction kits were obtained from Omega Bio-tek (Norcross, GA).
(§2) Uptake assays were performed with radiolabeled TEA (2 µM) or metformin (5 µM) as described previously ([Sprowl et al., 2013]; [Pabla et al., 2015]) in the presence or absence of TKIs. The results were normalized to uptake values in cells stably transfected with an empty vector treated with vehicle alone (Supplementary Figure S1). Prior to cellular accumulation experiments, cells were grown to 90% confluence on poly-lysine coated multi-well plates. For uptake studies, cells were rinsed with warm PBS and incubated in the presence of a vehicle or inhibitor, prepared in serum and phenol red-free DMEM media for 15 min. Subsequently, media was removed followed by the addition of radiolabeled TEA and metformin along with inhibitor, and cellular uptake was measured after a 15-min co-incubation period. Total radioactivity originating from TEA and metformin was determined using liquid scintillation counting after lysing the cells with 1 N NaOH, a neutralizing step with 2 M HCl. A Pierce protein assay (Thermo Fisher Scientific, Waltham, MA) was used to normalize radioactivity readings to account for variation in cell number between samples.

human OCT1 (hOCT1) = biological target: T2, human OCT1 (hOCT1) (Homo sapiens, UniProt O15245); assay: Cellular uptake of [14C] TEA or [14C] metformin in HEK293 cells overexpressing hOCT1, with or without inhibitor; type: cell-based; conditions: for OCT1 function (TEA transport) in presence of TKI: HEK293-hOCT1, TKI 10 µM, Figure 2D
T2 construct: expressed in transfected cells
T2 sequence (O15245 1-554): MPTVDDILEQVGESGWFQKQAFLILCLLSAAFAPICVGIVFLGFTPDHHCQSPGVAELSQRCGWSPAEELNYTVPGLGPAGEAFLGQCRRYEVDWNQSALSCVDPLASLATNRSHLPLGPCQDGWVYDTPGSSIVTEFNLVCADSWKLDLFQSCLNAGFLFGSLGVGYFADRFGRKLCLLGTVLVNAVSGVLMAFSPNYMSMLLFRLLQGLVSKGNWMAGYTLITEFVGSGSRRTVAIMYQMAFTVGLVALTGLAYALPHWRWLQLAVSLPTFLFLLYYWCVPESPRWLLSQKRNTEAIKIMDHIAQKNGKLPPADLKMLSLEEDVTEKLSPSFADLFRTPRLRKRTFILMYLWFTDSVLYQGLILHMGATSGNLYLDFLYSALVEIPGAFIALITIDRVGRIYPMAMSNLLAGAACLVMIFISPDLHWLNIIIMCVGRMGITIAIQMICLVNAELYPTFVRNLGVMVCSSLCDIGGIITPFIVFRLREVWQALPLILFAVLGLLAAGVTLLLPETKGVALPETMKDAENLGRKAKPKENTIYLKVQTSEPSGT
Procedure: as §1
as §2, with “The” for “Uptake assays were performed with radiolabeled TEA (2 µM) or metformin (5 µM) as described previously ([Sprowl et al., 2013]; [Pabla et al., 2015]) in the presence or absence of TKIs. The”

OCT2 (hOCT2) [1] = biological target: T3, OCT2 (hOCT2) (Homo sapiens, UniProt O15244); assay: OCT2 transport inhibition; type: cell-based; conditions: models overexpressing hOCT2, Supplementary Figure S4D
T3 construct: expressed in transfected cells; host or cells: overexpressing cell model
T3 sequence (O15244 1-555): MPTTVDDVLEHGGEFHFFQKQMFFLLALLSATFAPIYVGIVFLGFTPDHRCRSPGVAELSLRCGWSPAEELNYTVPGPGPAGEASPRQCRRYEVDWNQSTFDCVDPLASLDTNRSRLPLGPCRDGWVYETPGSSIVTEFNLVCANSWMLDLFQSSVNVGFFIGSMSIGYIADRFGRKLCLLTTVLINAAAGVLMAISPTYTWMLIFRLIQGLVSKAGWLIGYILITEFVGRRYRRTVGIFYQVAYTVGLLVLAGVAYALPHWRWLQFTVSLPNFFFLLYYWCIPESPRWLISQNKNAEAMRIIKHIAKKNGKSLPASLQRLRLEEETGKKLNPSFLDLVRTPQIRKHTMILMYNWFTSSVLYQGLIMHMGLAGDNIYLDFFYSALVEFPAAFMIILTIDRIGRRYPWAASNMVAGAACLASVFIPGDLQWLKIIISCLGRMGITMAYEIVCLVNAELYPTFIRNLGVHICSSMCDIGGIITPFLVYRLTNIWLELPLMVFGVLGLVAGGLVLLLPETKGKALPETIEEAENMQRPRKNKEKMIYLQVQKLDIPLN
Procedure: as §2

OCT2 (hOCT2) [2] = biological target: T3, OCT2 (hOCT2); conditions: Yes/No; TKIs previously found to inhibit OCT2; ref Sprowl et al., 2016; cited from earlier work
YES1 = conditions: read-out: YES1 Kd; ref Klaeger et al., 2017; KINOMEscan data—HMS LINCS Project, 2020; cited from earlier work
OCT1 = assay: Dose-response OCT1 uptake inhibition, summarised across mOCT1 and hOCT1 models and test substrates; type: cell-based, human and mouse; conditions: for OCT1 inhibition: Yes/No; for OCT1 function in dose-response experiments: species-independent, regardless of test substrate
Procedure: as §1, §2

OCT1 (mouse and human) = assay: as above; type: cell-based; conditions: mouse and human, probe [14C] TEA (2 µM) or [14C] metformin (5 µM); range over mOCT1/hOCT1 models and test substrates
Procedure: as §1, §2

OCT3 = biological target: T4, OCT3 (Homo sapiens, UniProt O75751); assay: OCT3 transport inhibition by TKIs (Supplementary Figure S2); type: cell-based
T4 sequence (O75751 1-556): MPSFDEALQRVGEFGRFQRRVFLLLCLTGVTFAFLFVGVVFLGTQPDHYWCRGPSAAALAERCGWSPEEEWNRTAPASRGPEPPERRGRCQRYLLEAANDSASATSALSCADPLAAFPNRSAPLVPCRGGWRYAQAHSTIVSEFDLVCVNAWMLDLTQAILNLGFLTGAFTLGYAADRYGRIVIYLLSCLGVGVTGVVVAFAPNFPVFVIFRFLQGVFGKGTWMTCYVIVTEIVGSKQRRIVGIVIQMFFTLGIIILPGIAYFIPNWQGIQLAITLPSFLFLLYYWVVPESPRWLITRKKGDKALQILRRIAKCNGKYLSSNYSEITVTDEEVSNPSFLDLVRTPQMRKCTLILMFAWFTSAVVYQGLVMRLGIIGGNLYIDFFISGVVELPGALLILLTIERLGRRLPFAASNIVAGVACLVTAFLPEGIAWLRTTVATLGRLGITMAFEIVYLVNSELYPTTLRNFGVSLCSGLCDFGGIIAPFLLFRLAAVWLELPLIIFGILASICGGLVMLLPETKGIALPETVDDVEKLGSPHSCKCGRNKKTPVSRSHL
Procedure: as §2

hepatic OCT1 = biological target: T5, hepatic OCT1 (Mus musculus, UniProt O08966); conditions: OCT1/2-deficient vs wild-type mice, [14C] TEA 0.2 mg/kg i.v.
T5 sequence (O08966 1-556): T1 sequence (O08966 1-556)
Procedure: Mice were accommodated in a temperature-, and light-controlled environment with access to water and food.
TEA (0.2 mg/kg) via the caudal vein. Concentrations of total TEA-derived radioactivity in plasma and homogenized liver samples were measured by liquid scintillation counting.

Row | SMILES | OCT1 function (TEA transport) in presence of TKI (human OCT1 (hOCT1)) | OCT3 function in presence of TKI (OCT3) | OCT2 inhibition (OCT2 (hOCT2) [2]) | OCT1 inhibition (OCT1) | OCT1 function in dose-response experiments (OCT1) | IC50 at 15 min (OCT1 (mouse and human)) [nM] | also measured
1 | Cc1cc2cc(C(=O)c3cnn(-c4cnc(Oc5c(F)cccc5F)cc4C)c3N)[nH]c2cc1NS(C)(=O)=O [CH6953755] |  |  |  |  |  |  | inhibition of mOCT1-mediated transport (mouse OCT1 (mOCT1)): also observed; IC50 (human OCT1 (hOCT1); HEK293-hOCT1, [14C] TEA 2 µM, 15 min pre-incubation + 15 min co-incubation, read-out: IC50, hOCT1-mediated transport of TEA): 2760 nM; IC50 (human OCT1 (hOCT1); HEK293-hOCT1, [14C] metformin 5 µM, read-out: IC50, hOCT1-mediated transport of metformin): 2310 nM; inhibition of hOCT2-mediated transport (OCT2 (hOCT2) [1]): also observed
2 | COc1cc2c(Nc3ccc(Br)cc3F)ncnc2cc1OCC1CCN(C)CC1 [Vandetanib, vandetanib] | inhibit OCT1 function |  | Yes | Yes | potently inhibited | 1350 to 9050 | Kd (YES1): 120 nM
3 | CS(=O)(=O)CCNCc1ccc(-c2ccc3ncnc(Nc4ccc(OCc5cccc(F)c5)c(Cl)c4)c3c2)o1 [Lapatinib, lapatinib] | not |  | No | No |  |  | 
4 | CCc1nc(C(N)=O)c(Nc2ccc(N3CCC(N4CCN(C)CC4)CC3)c(OC)c2)nc1NC1CCOCC1 [Gilteritinib, gilteritinib] | inhibit OCT1 function | no influence | Yes | Yes | potently inhibited | 10 to 20 | 
5 | C=CC(=O)N1CCC[C@@H](n2nc(-c3ccc(Oc4ccccc4)cc3)c3c(N)ncnc32)C1 [Ibrutinib, ibrutinib] | inhibit OCT1 function | no influence | Yes | Yes | potently inhibited | 890 to 1180 | 
6 | CC[N+](CC)(CC)CC [TEA, tetraethylammonium] |  |  |  |  |  |  | hepatic uptake of TEA (liver-to-plasma concentration ratio) in OCT1/2-deficient mice (hepatic OCT1): dramatically reduced

More lines, main results first:

Row | OCT1 function (TEA transport) in presence of TKI (human OCT1 (hOCT1)) | OCT3 function in presence of TKI (OCT3) | SMILES | OCT2 inhibition (OCT2 (hOCT2) [2]) | OCT1 inhibition (OCT1) | OCT1 function in dose-response experiments (OCT1) | IC50 at 15 min (OCT1 (mouse and human)) [nM] | also measured
7 | inhibit OCT1 function | no influence | COc1cc(Nc2c(C#N)cnc3cc(OCCCN4CCN(C)CC4)c(OC)cc23)c(Cl)cc1Cl [bosutinib] |  |  |  |  | 
8 | inhibit OCT1 function | potently inhibiting | CCN(CC)CCNC(=O)c1c(C)[nH]c(/C=C2\C(=O)Nc3ccc(F)cc32)c1C [sunitinib] |  |  |  |  | 
